Measurements as given in patent publication EP4810493A1, “HETEROCYCLIC CARBONYL DERIVATIVE MODULATOR, PREPARATION METHOD THEREFOR, AND USE THEREOF” (Shanghai Hansoh Biomedical Co., Ltd., priority 2023, dated 2025).

Key:
[1] = Pharmacokinetic determination in SD rats; settings: rat, in vivo, po, male SD rats, p.o. 5 mg/kg; for MRT inf: read-out: MRT 0-∞
Protocol: To investigate the pharmacokinetic behaviours of the example compounds in both plasma and brain of SD rats (test animals) following oral administration at a dose of 5 mg/kg.
(§1) 2.1 Test drugs: The example compounds of the present invention, made in house.
2.2 Test animals: SD Rat, male.
24 SD Rats, male; p.o. respectively at a dose of 5 mg/kg and an administration volume of 10 mL/kg after the rats were fasted overnight.
(§2) Formulation of a drug for oral administration: 0.5% CMC-Na (1% Tween 80).
(§3) 0.50 g of sodium carboxymethyl cellulose (CMC-Na, viscosity: 800-1200 Cps) was weighed and dissolved in 99 mL of purified water, and 1 ml of Tween 80 was added. The components were mixed thoroughly under stirring to form a clear solution.
The example compound was weighed into a 100 mL glass vial, 80 mL of the solution was added, and the mixture was subjected to ultrasound treatment for 10 minutes to obtain a homogeneous suspension with a concentration of 0.5 mg/mL.
(§4) After the test animals were euthanised by CO2, blood samples were collected from the heart and brain tissues were harvested at 0.25 h, 0.5 h, 1 h, 2 h, 4 h, 6 h, 8 h, and 24 h post-dose. Blood was placed in EDTA-2K tubes, and centrifuged at 6000 rpm for 6 min at 4°C to separate the plasma. Brain tissues were rinsed with pre-cold PBS, blotted dry, and weighed. Both plasma and brain samples were stored at -80°C. The animals were fed 4 h after administration.
(§5) • 3) 40 uL of plasma sample was precipitated with 160 uL of acetonitrile, mixed, and centrifuged at 3500 × g for 5-20 min. Brain tissues were diluted, homogenised and centrifuged. • 4) 100 uL of the treated supernatant solution was taken for LC/MS/MS analysis to determine the concentration of the test compounds.
(§6) • Liquid phase conditions: Shimadzu LC-20AD pump • Mass spectrometry conditions: AB Sciex API 4000 mass spectrometer • Chromatographic column: Phenomenex Gemiu 5 um C18 50 × 4.6 mm • Mobile phase: solution A: 0.1% formic acid in water, solution B: acetonitrile • Flow rate: 0.8 mL/min • Elution time: 0-4.0 min, with eluents as follows:
(§7) The main pharmacokinetic parameters were calculated using WinNonlin 8.1.

M4 receptor = molecular target: T1, M4 receptor (Homo sapiens, UniProt P08173); assay: Calcium flux (FLIPR) potentiation assay in cells stably expressing M4 receptor; format: cell-based; settings: CHO-K1/M4/Gα15 cells; potentiation of acetylcholine (EC20) calcium flux; read-out: M4 FLIPR EC50
T1 construct: expressed in transfected cells
T1 sequence (P08173 1-479): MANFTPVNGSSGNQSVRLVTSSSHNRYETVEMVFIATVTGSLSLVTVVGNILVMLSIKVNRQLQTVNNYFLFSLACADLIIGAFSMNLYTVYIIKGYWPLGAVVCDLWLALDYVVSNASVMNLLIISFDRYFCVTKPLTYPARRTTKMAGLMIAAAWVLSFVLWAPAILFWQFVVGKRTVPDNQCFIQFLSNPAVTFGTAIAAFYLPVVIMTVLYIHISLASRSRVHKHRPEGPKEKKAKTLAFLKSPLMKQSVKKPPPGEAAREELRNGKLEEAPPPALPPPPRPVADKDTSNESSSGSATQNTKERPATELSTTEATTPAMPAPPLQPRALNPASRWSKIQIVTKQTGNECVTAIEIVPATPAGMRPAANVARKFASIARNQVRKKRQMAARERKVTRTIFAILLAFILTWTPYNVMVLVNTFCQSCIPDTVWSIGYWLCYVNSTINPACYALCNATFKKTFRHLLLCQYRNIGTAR
From the text: Test example 1. Determination of the effect of the compounds of the present invention on calcium current in cells stably expressing M1-M5 receptors
To detect the potentiating effect of compounds on calcium flux activity in CHO-K1/human M1/3/5 and CHO-K1/Gα15 M2/4 cells.
384-well assay plate, 384-well plate, FLIPR Tip, FLIPR Penta plate reader, Dispendix non-contact nanoliter dispensing system (liquid handling workstation), liquid handler.
Ham's F-12 Nutrient Mix, foetal bovine serum, P/S (Gibco: 15140122), HBSS (Gibco: 14025076), HEPES (Gibco: 15630080), FLIPR calcium 6 assay kit (Molecular Devices: R8190), Probenecid (PBA) (Invitrogen: P36400), Acetylcholine chloride (Sigma: A6625-25G) Complete culture medium: DMEM + 10% FBS + 1X P/S; Cell seeding medium: DMEM + 10% FBS + 1X PS; Assay buffer 1: 1X HBSS + 20 mM HEPES +2.5 mM Probenecid; Assay buffer 2: 1X HBSS + 20 mM HEPES; Cell line: CHO-K1/M1; CHO-K1/M2/Gα15; CHO-K1/M3; CHO-K1/M4/Gα15; CHO-K1/M5.
FLIPR calcium 6 assay kit: Component A was dissolved in Assay buffer 1, and the mixture was shaken for 1-2 min, sub-packaged and stored at -20°C.
• 1) CHO-K1/M1; CHO-K1/M2/Gα15; CHO-K1/M3; CHO-K1/M4/Gα15; and CHO-K1/M5 cell lines were cultured separately in complete culture medium at 37°C, 5% CO2 to 70%-90% confluency. • 2) The cells were digested and resuspended in cell seeding medium, 5,000 cells/well/20 µL were seeded into a 384-well cell culture plate, and the cells were cultured at 37°C, 5% CO2 for 24 hours. • 3) The cell culture plate was taken out of the CO2 incubator and equilibrated at room temperature for 10 minutes. • 4) Component A solution was removed and allowed to equilibrate to room temperature. 20 µL of Component A solution was added to each well of the cell culture plate, and incubated at room temperature in the dark for 1 hour. • 5) Acetylcholine chloride (ACh), a muscarinic receptor agonist, was prepared in Assay buffer 2 at EC20/EC100 concentrations; subsequently, 30 µL of the prepared muscarinic receptor agonist was added to a 384-well agonist plate (PE: 6008590) using a Multidrop Combi; the working solutions of the positive control compound and the test compound were serially diluted at a 3.16-fold gradient and dispensed (450 nL) into a 384-well compound plate (PE: 6008590) using the Dispendix liquid handling workstation; 30 µL of Assay buffer 2 was added to the 384-well compound plate (PE: 6008590) using the Multidrop Combi; the positive control compound and the test compound were diluted to 6X, mixed by shaking, and placed at room temperature until use. • 6) 10 µL of the diluted 6X compound was added to the assay wells of the corresponding 384-well cell plate using the FLIPR Penta, followed by a 2-minute incubation. • 7) 10 µL of the prepared muscarinic receptor agonist was added to the assay wells of the corresponding 384-well cell plate using the FLIPR Penta, with simultaneous data acquisition.
FLIPR Penta was used to read and collect the fluorescence signal value (RFU). The maximum RFU value was used to calculate the percent activation data based on the readings of the Low control (DMSO control group) and High control (ACh EC100) experimental groups {% activation rate = (RFUsample - RFUlow control) / (RFUhigh control - RFUlow control)×100}. The test compound was diluted 3.16X in the reaction system to generate 11 concentration points ranging from 30 µM to […].

[2] = Pharmacokinetic determination in Balb/c mice; settings: mouse, in vivo, po, male Balb/c mice, p.o. 5 mg/kg
Protocol: To investigate the pharmacokinetic behaviours of the example compounds in both plasma and brain of Balb/c mice (test animals) following oral administration at a dose of 5 mg/kg.
as §1
2.2 Test animals: Balb/c Mouse, male.
24 Balb/c mice, male; p.o. respectively at a dose of 5 mg/kg and an administration volume of 10 mL/kg after the mice were fasted overnight.
as §2, §3
The example compound was weighed into a 4-mL glass vial, 2.4 mL of the solution was added, and the mixture was subjected to ultrasound treatment for 10 minutes to obtain a homogeneous suspension with a concentration of 0.5 mg/mL.
as §4
as §5, with “1)” for “3)”, “2)” for “4)”
as §6, §7

Compound | AUC(0-inf) [1] [ng·h/mL] | Cmax [1] [ng/mL] | Tmax [1] [h] | MRT inf [1] [h] | EC50 (M4 receptor) [nM] | AUC(0-inf) [2] [ng·h/mL] | Cmax [2] [ng/mL] | Tmax [2] [h] | MRT inf ([2]; read-out: MRT 0-∞) [h]
Cc1c2c(c3ccnn3c1C)CN(C(=O)CC1CN(c3ccnc(C(F)(F)F)c3)C1)C2 [Example 76, 1-(4,5-Dimethyl-2,3-dihydro-1H-pyrrolo[4,3-c]pyrazolo[1,5-a]pyridin-2-yl)-2-{1-[2-(trifluoromethyl)pyridin-4-yl]azetidin-3-yl}ethan-1-one] | 6150 | 1090 | 2 | 3.9 | 40.4 |  |  |  | 
Cc1c2c(c3ncnn3c1C)CN(C(=O)OC1CN(c3ccnc(C(F)F)c3)C1)C2 [Example 122] | 34800 | 3110 | 2 | 5.8 |  | 6130 | 1550 | 0.5 | 2.6
Cc1c2c(c3nccn3c1C)CN(C(=O)OC1CN(c3ccnc(C(F)F)c3)C1)C2 [Example 141] | 8540 | 3210 | 0.5 | 1.7 | 39.3 |  |  |  | 
COc1cc(N2CC(CC(=O)N3Cc4c(C)c(C)n5ncnc5c4C3)C2)c(Cl)cn1 [Example 147] | 3260 | 914 | 1 | 2.4 | 40.9 |  |  |  | 
COc1cc(N2CC(OC(=O)N3Cc4c(C)c(C)n5ncnc5c4C3)C2)ccn1 [Example 182] | 7050 | 1710 | 1 | 2.8 | 37 |  |  |  | 
Cc1c2c(c3ncnn3c1C)CN(C(=O)CC1CN(c3ccnc(OC4CC4)c3)C1)C2 [Example 188] | 3170 | 967 | 1 | 2.6 | 20.6 |  |  |  | 
Cc1c2c(c3ncnn3c1C)CN(C(=O)CC1CN(c3ccc4nc(C(F)F)cn4n3)C1)C2 [Example 189] | 3220 | 1040 | 1 | 2.6 | 13.3 |  |  |  | 
Cc1c2c(c3ncnn3c1C)CN(C(=O)OC1CN(c3ccc4nc(C(F)F)cn4n3)C1)C2 [Example 191] | 16100 | 2840 | 2 | 3.9 | 31 |  |  |  | 
